Laboratory results taken from patent publication US7514254B2, “Plant-derived alkaline alpha-galactosidase” (The State of Israel, Ministry of Agriculture & Rural …, priority 1998, dated 2009).
Entries after “also recorded” stand apart in the source; their conditions may differ.

Experiments:
[1] = molecular target: T1, melon (Cucumis melo) fruit alkaline alpha-galactosidase Form II (Cucumis melo, UniProt Q84NI6); assay: Substrate kinetics (Lineweaver-Burk) of alkaline alpha-galactosidase Form II; format: biochemical, muskmelon (Cucumis melo L. cv C-8)
T1 construct: native 102 kDa, denatured 92 kDa; assayed at pH 7.5
T1 sequence (Q84NI6 1-772): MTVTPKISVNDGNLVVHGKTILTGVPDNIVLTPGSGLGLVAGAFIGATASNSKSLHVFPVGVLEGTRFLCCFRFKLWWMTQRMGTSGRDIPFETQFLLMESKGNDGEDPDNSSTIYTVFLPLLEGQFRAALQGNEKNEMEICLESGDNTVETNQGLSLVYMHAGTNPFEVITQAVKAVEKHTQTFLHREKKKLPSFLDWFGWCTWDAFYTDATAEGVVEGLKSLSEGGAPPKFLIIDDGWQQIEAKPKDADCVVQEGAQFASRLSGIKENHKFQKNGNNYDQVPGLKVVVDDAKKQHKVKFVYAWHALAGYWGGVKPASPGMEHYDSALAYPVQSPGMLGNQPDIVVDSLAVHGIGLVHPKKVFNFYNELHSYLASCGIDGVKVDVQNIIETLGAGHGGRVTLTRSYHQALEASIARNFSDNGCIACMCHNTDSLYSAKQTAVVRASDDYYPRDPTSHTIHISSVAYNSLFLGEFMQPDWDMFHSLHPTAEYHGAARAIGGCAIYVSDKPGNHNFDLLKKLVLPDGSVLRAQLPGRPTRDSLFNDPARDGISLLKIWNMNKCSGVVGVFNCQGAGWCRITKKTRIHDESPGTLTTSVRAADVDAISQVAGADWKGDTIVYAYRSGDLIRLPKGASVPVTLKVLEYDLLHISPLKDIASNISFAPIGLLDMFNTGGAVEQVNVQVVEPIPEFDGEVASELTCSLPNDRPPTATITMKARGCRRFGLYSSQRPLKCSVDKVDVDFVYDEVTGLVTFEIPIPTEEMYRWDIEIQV
Method: (§1) For routine analysis and monitoring the activity in the purification steps, alpha-galactosidase was assayed as described by Smart and Pharr (“Characterization of alpha-galactosidase from cucumber leaves”, Plant Physiology, 66:731-734, 1980), using p-nitrophenyl alpha-galactoside (pNPG) as substrate. Reaction was initiated by adding 50 μl enzyme aliquot to either 200 μl 100 mM pH 5.5 McIlvaine buffer or 100 mM pH 7.5 HEPES buffer, containing 5 mM pNPG at 35 C. The reaction was terminated after 10 min by adding 1 ml of 5% (w/v) Na2CO3 and activity expressed as nmol nitrophenol per min as measured at 410 nm. […] The assay was started by adding 50 μl enzyme preparation at 35 C and terminated after 10 to 20 min by 2 min boiling.
The fractions from the DEAE-Sepharose chromatography which were active at pH 7.5 were pooled and dialyzed against buffer A for 12 h prior to loading onto an HPLC ion exchange chromatography column (Mono-Q HR 5/5, Pharmacia, Uppsala, Sweden), previously equilibrated with buffer A. Bound proteins were eluted with a linear gradient of 0.1 to 0.45 M NaCl and the active fractions were detected using pNPG as substrate at pH 7.5 as described above. […] For the further purification of Form II the active fractions of the peak II were chromatographed on hydrophobic interaction chromatography. The fractions were pooled, brought to 1 M (NH4)2SO4 and loaded on to a hydrophobic interaction column (phenyl-Sepharose CL-4B, 0.5×12 cm, Pharmacia, Uppsala, Sweden) previously equilibrated with buffer A containing 1 M (NH4)2SO4. The protein was eluted with a reverse stepwise gradient from 1 to 0 M (NH4)2SO4 with 50 mM intervals in buffer A. Fractions containing the activity peak were collected and dialyzed for 12 h against buffer A and the dialysate was concentrated by reverse dialysis against solid sucrose. The enzyme, partially purified by hydrophobic interaction chromatography, was used for the characterization of Form II. The active fractions from the hydrophobic interaction column were further purified. Active fractions were separated electrophoretically using a Mini Prep Cell (Bio-Rad Laboratories, Hercules, Calif.) for discontinuous native-PAGE with 7% polyacrylamide, according to manufacturer's instructions. Fractions (0.25 ml/fraction) were assayed at pH 7.5 with pNPG as substrate for the activity. The active fractions were pooled, concentrated by Vivaspin Concentrator (Vivascience LTD, Lincoln, England), and run in a 8% SDS-PAGE. Proteins in the SDS-PAGE were identified using Coomassie Blue staining.

[2] = molecular target: T2, melon (Cucumis melo) fruit alkaline alpha-galactosidase Form I (Cucumis melo, UniProt Q84NI7); assay: Inhibition of alkaline alpha-galactosidase Form I by alternative substrate (galactose release); format: biochemical, muskmelon (Cucumis melo L. cv C-8); parameters: native 84 kDa, denatured 79 kDa; assayed at pH 7.5
T2 sequence (Q84NI7 1-754): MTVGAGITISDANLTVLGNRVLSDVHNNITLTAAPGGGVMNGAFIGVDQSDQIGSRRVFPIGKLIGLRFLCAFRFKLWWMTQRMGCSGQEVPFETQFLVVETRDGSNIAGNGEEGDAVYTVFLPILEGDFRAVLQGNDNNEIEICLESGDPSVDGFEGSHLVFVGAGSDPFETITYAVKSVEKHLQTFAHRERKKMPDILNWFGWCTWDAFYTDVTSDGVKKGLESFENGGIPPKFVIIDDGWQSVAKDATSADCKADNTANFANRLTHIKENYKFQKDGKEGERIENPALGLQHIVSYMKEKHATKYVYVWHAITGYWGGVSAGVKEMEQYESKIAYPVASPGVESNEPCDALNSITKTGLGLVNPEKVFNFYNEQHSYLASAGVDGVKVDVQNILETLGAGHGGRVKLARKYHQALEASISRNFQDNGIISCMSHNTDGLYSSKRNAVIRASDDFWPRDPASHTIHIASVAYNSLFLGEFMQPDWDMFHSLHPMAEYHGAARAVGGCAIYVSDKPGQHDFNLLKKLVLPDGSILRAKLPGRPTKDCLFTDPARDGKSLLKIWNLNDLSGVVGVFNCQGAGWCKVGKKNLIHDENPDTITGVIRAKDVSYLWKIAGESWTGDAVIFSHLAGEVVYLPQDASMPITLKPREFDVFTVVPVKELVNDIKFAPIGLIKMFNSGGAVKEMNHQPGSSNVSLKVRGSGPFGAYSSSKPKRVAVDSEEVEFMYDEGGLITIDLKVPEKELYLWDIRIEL
Method: as §1

OC[C@H]1O[C@H](OC[C@H]2O[C@H](OC[C@H]3O[C@H](O[C@]4(CO)O[C@H](CO)[C@@H](O)[C@@H]4O)[C@H](O)[C@@H](O)[C@@H]3O)[C@H](O)[C@@H](O)[C@H]2O)[C@H](O)[C@@H](O)[C@H]1O [Stachyose, O-alpha-D-galactopyranosyl-(1-6)-O-alpha-D-galactopyranosyl-(1-6)-O-alpha-D-glucopyranosyl-(1-2)-beta-D-fructofuranoside]
Vmax/Km ratio [1]: 0.61 | Vmax ([1]; Lineweaver-Burk): 2.2 μmol mg^−1 protein min^−1 | inhibition by excess stachyose (free galactose release, in words) [2]: negligible; also recorded: does not decrease
